In patent US20060148020A1, “Inhibitors of gst a3-3 and gst a1-1 for the treatment of cancer” (priority 2002, published 2006):
pIC50: −log10 of the molar value. Read-outs that look alike come from different tables or passages of the source.

Legend:
GST A1-1 [1] = biological target: T1, GST A1-1 (Homo sapiens, UniProt P08263); experiment: biochemical
T1 sequence (P08263 1-222): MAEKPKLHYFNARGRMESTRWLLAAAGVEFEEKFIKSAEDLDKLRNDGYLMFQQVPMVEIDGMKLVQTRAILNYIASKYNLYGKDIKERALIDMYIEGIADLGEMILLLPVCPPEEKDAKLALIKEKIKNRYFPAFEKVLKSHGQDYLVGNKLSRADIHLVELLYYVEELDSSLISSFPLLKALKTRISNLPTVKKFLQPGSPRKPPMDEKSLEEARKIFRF

GST A3-3 [2] = biological target: T2, GST A3-3 (Homo sapiens, UniProt Q16772); experiment: biochemical
T2 sequence (Q16772 1-222): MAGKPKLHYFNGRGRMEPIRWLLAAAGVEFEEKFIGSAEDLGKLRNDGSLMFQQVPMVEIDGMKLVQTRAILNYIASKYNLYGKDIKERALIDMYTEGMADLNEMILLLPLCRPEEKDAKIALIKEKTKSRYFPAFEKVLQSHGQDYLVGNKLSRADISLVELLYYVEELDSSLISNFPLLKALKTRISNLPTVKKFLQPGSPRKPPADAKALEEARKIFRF

GST A3-3 [3] = biological target: T2, GST A3-3; settings: read-out: IC50 Values GST A3-3
GST A1-1 [4] = biological target: T1, GST A1-1; settings: read-out: IC50 Values GST A1-1
GST A2-2 [5] = biological target: T3, GST A2-2 (Homo sapiens, UniProt P09210); settings: read-out: IC50 Values GST A2-2
T3 sequence (P09210 1-222): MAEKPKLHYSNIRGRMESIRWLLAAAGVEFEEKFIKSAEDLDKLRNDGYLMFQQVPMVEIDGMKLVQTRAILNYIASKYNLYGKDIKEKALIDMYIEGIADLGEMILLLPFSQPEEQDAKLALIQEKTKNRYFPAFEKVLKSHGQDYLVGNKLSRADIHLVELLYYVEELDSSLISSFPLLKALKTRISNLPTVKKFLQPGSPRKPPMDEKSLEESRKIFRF

GST A2-2 [6] = biological target: T3, GST A2-2; experiment: biochemical

SMILES	pIC50 (GST A1-1 [1])	pIC50 (GST A3-3 [2])	pIC50 (GST A3-3 [3])	pIC50 (GST A1-1 [4])	pIC50 (GST A2-2 [5])	pIC50 (GST A2-2 [6])
[Br][Pb]([c]1ccccc1)([c]1ccccc1)[c]1ccccc1 [Ph3PbBr]	8.07	6.80				
CCC[CH2][Sn]([CH2]CCC)([CH2]CCC)[O]C(C)=O [Bu3SnAc]			7.74	7.74	6.39	
C[CH2][Pb]([Cl])([CH2]C)[CH2]C [Et3PbCl]	5.70	5.64				
CC(=O)[O][Sn]([c]1ccccc1)([c]1ccccc1)[c]1ccccc1 [Ph3SnAc]			6.80	6.80		
C[CH2][Ge]([Cl])([CH2]C)[CH2]C [Et3GeCl]	4.25	4.17				6.10
[Cl][Pb]([c]1ccccc1)([c]1ccccc1)[c]1ccccc1 [Ph3PbCl]	8.34	7.89				7.08
